# Reference: US20260151327A1, “COSMETIC COMPOSITION FOR SKIN PROTECTION CONTAINING SCUTELLARIA BAICALENSIS EXTRACT AS ACTIVE INGREDIENT” (EVERBIO CO., LTD., priority 2022, published 2026)
# Assays:
# Format in all cases: cell-based
# [1] = Cytotoxicity (CC50) in adipose-derived stem cells, 3 days exposure; conditions: human, adipose-derived stem cells (ASCs, ATCC PCS-500-011), benzo[a]pyrene, ASCs exposed for 3 days; read-out: CC50 (50% cytotoxicity concentration)
# Protocol: (§1) PCS-500-011™ cells (Thermo-Fisher Scientific, USA) were purchased as adipose-derived stem cells (ASCs) used in the experiment, from American Type Culture Collection (ATCC), and subcultured for 3 passages in the MesenPRO RS™ medium and MesenPRO RS™ growth supplement medium (Thermo-Fisher scientific, USA) until the live cells reached 80% to 90% confluency.
# (§2) Specifically, the cell stock vial was thawed in a 37° C. water bath and suspended in a medium with an equal volume of the cell stock vial, and then the suspension was transferred to a tube and centrifuged (2,000 rpm, 2 min, 4° C.), followed by removal of the supernatant. The phosphate buffered saline (PBS) was added to the cell pellets remaining after the removal of the supernatant, and then the above procedures were repeated three times. Thereafter, the resultant product was placed in a medium where the cell pellets were to be grown, followed by gentle pipetting up and down, thereby preparing a cell suspension. The cell suspension was dispensed into a flask or dish containing an appropriate amount of medium. The cells were subcultured when the cells reached 70% to 80% confluency on the bottom.
# (§3) PBS, media, and trypsin-EDTA were warmed at 37° C. for 30 minutes before use. The supernatant medium was removed by suction, and PBS was dispensed. […]
# [2] = test system: adipose-derived stem cells (ASCs); assay: as above; conditions: benzo[a]pyrene, ASCs exposed for 3 days; read-out: CC50 (50% cytotoxicity concentration)
# Protocol: as §1, §2, §3
# [3] = test system: adipose-derived stem cells (ASCs); assay: Annexin-V-PI staining and flow cytometry: protection of ASCs against benzo[a]pyrene toxicity; conditions: human, 50 μM/mL
# Protocol: The adipose-derived stem cell (ASC) protective effect of the Scutellaria baicalensis extract against the cell toxicity of benzo[a]pyrene was analyzed as below.
# The adipose-derived stem cells cultured by the method in Example 1-1 were divided into i) a group treated with 50 μM/mL benzo[a]pyrene (BP50), ii) a group treated with 50 μM/mL benzo[a]pyrene and 200 μL/mL Scutellaria baicalensis extract (SBE200+BP50), and iii) a group treated with 50 μM/mL benzo[a]pyrene and 400 μL/mL Scutellaria baicalensis extract (SBE400+BP50). To observe cell apoptosis, the cells were stained using Annexin-V-PI dye kit (Invitrogen, USA). Since Annexin-V binds to phosphatidylserine (PS), which was exposed on the outer cell membrane during early apoptosis, early apoptosis can be identified using Annexin-V. Meanwhile, propidium iodide (PI), which binds to the nucleus, stains the nucleus through holes formed in the cell membrane in a state of late apoptosis or necrosis, thereby allowing the identification of late apoptotic or dead cells. […] For result analysis, the cellular viability was measured using a flow cytometer (BD FACSCalibur) and FlowJo 10.6.1 (BD Bioscience), and the results are shown in FIG. 2.
# [4] = test system: AMP-activated protein kinase (AMPK); assay: Lipolysis promoting effect in ASCs, PE-anti-AMPK staining, flow cytometry and AMPK synthesis level; conditions: benzo[a]pyrene alone (BP50)
# Protocol: (§4) AMP-activated protein kinase (AMPK) and hormone sensitive lipase (HSL), most common lipolytic enzymes, were applied to adipose-derived stem cells (ASCs), and the lipids obtained by degradation through AMPK were stained with PE-anti-AMPK (R&D system, USA), and the lipids obtained by degradation through HSL were stained with FITC-anti-HSL (R&D system, USA) for 24 hours. The lipids were washed with PBS, and then analyzed using a flow cytometer (FACSCalibur) and FlowJo v10.6.1 (BD Bioscience, USA), and the results are shown in FIG. 3A.
# (§5) The synthesis levels of AMPK and HSL were analyzed and plotted in FIG. 3B.
# [5] = test system: hormone sensitive lipase (HSL); assay: Lipolysis promoting effect in ASCs, FITC-anti-HSL staining, flow cytometry and HSL synthesis level; conditions: benzo[a]pyrene alone (BP50)
# Protocol: as §4, §5
# [6] = test system: CCAAT enhancer binding protein alpha (CEBP-α); assay: mRNA expression level of CEBP-α in ASCs (RT-PCR); conditions: 50 μM/mL benzo[a]pyrene (BP50) vs control (Con)
# Protocol: The influence of benzo[a]pyrene and the Scutellaria baicalensis extract on the mRNA expression level of CCAAT enhancer binding protein alpha (CEBP-α), one of the lipolysis promoting genes, was investigated by the method as below.
# The adipose-derived stem cells were divided into i) a control group with no treatment (Con), ii) a group treated with 50 μM/mL benzo[a]pyrene (BP50), iii) a group treated with 50 μM/mL benzo[a]pyrene and 200 μL/mL Scutellaria baicalensis extract (SBE200+BP50), and iv) a group treated with 50 μM/mL benzo[a]pyrene and 400 μL/mL Scutellaria baicalensis extract (SBE400+BP50), and the total RNA of each cell group was extracted using […] (GeneAll, Seoul, Korea). RNA was used to synthesize cDNA under the conditions of 1 minute at 95° C. and 35 seconds at 72° C. by using Maxime RT PreMix (iNtRON, Seungnam, Korea). The synthesized cDNA was amplified using the primers shown in Table 1 under the conditions of 15 seconds at 95° C., 30 seconds at 59° C., and 1 minute at 72° C. The amount of cDNA amplification was analyzed using iBright (FL1000, Thermo Fisher Scientific, Waltham, MA, USA) and iBright Analysis software 3.1.3 (Thermo Fisher Scientific, Waltham, MA, MA, USA), and the results are shown in FIG. 5.
smiles,measurement,setting,value
"c1ccc2c(c1)cc1ccc3cccc4ccc2c1c34 [benzo[a]pyrene, Benzo[a]pyrene]",CC50 at 3 days,[1],25 µM
same,CC50,[2],50 µM
same,cellular viability,[3],48.1%
same,early apoptotic cell proportion,[3],29.6%
same,late apoptotic cell proportion,[3],51.8%
same,proportion of cells undergoing lipolysis by AMPK,[4],18.72%
same,proportion of cells undergoing lipolysis by HSL,[5],14.92%
same,"mRNA expression level of CEBP-α, fold higher than control group",[6],4.73 fold
